For data set [1], the target named is 5-hydroxytryptamine receptor 4 (Cavia porcellus, UniProt O70528). Type of data set: cell membranes, Dunkin-Hartley, Striatum, Membrane. Further: in other assays of this panel Not Active means under 50% inhibition at 10 µM.
The target of data set [2] is T1, Vasoactive intestinal polypeptide receptor 1 (Homo sapiens, UniProt P32241). Further: in other assays of this panel Not Active means under 50% inhibition at 10 µM.
T1 sequence (P32241 whole entry): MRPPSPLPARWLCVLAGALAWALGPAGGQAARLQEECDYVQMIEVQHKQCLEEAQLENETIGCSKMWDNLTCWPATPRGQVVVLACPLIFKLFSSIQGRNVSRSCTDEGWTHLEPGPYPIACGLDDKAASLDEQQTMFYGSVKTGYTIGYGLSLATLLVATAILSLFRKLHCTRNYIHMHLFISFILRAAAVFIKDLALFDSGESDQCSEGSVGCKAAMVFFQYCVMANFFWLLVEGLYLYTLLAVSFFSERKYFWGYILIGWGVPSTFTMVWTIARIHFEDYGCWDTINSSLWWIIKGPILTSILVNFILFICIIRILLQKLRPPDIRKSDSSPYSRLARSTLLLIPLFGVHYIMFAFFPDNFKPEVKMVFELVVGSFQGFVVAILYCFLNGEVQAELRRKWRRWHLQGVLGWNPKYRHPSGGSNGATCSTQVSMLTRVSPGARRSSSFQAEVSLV
In kind it is cell membranes, Membrane. The following applies: ht-29.

Data set [3] has as its target T2, Muscarinic acetylcholine receptor M5 (Homo sapiens, UniProt P08912). Further: in other assays of this panel Not Active means under 50% inhibition at 10 µM.
T2 sequence (P08912 whole entry): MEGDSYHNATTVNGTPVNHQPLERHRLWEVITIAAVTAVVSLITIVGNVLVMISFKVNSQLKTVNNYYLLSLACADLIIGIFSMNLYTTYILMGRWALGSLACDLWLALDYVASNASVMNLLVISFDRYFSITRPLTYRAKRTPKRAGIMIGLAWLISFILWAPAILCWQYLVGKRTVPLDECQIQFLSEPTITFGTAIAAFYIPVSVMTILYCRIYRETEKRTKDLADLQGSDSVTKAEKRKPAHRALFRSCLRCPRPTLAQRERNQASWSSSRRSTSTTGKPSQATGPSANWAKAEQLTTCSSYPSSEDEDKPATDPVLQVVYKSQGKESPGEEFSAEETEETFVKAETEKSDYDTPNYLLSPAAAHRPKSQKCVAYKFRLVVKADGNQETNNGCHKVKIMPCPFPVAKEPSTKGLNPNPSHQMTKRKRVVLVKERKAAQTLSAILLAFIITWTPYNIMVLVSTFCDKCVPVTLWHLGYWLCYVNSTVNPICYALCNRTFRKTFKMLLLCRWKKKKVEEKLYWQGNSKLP
In kind it is cell membranes, CHO-K1, Membrane.

The target in another data set is T3, Estrogen receptor (Homo sapiens, UniProt P03372). Further: in other assays of this panel Not Active means under 50% inhibition at 10 µM.
T3 sequence (P03372 whole entry): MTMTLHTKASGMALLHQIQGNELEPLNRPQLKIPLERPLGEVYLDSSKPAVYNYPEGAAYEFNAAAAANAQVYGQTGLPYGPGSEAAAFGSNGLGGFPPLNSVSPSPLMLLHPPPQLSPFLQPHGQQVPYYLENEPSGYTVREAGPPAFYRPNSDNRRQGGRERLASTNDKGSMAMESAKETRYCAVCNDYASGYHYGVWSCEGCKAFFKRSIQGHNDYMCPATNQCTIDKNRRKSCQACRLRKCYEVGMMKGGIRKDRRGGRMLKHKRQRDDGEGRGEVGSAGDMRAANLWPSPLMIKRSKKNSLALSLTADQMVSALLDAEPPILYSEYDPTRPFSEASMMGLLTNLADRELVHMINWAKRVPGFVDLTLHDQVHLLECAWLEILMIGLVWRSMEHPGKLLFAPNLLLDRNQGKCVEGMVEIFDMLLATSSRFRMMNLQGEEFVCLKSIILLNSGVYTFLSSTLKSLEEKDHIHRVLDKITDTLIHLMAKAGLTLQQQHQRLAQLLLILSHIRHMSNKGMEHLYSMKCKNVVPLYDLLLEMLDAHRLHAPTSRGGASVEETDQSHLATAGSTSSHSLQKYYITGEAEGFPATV
The following applies: sf9.

For the next data set, the target named is Adenosine receptor A2a (Homo sapiens, UniProt P29274). Nature of the data set: DRUGMATRIX: Adenosine A2A radioligand binding (ligand: […]). In kind it is cell membranes, HEK293, Membrane. The following applies: hek293; Not Active = under 50% inhibition at 10 µM.
Sequence of Adenosine receptor A2a (P29274 whole entry): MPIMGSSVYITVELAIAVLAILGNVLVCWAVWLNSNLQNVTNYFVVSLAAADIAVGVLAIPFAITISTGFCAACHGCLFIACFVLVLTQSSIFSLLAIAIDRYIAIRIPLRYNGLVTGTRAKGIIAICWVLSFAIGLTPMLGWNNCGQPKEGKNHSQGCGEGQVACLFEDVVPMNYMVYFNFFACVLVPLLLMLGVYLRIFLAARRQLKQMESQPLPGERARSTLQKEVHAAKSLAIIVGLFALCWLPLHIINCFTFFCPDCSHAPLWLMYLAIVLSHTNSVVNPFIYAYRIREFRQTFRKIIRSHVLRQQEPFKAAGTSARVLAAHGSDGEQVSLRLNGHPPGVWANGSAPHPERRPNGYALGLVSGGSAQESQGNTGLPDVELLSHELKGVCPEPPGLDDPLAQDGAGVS
The target of a further data set is Nitric oxide synthase 1 (Rattus norvegicus, UniProt P29476). Type of data set: tissue-based, Cerebellum. Further: in other assays of this panel Not Active means under 50% inhibition at 10 µM.
Sequence of Nitric oxide synthase 1 (P29476 whole entry): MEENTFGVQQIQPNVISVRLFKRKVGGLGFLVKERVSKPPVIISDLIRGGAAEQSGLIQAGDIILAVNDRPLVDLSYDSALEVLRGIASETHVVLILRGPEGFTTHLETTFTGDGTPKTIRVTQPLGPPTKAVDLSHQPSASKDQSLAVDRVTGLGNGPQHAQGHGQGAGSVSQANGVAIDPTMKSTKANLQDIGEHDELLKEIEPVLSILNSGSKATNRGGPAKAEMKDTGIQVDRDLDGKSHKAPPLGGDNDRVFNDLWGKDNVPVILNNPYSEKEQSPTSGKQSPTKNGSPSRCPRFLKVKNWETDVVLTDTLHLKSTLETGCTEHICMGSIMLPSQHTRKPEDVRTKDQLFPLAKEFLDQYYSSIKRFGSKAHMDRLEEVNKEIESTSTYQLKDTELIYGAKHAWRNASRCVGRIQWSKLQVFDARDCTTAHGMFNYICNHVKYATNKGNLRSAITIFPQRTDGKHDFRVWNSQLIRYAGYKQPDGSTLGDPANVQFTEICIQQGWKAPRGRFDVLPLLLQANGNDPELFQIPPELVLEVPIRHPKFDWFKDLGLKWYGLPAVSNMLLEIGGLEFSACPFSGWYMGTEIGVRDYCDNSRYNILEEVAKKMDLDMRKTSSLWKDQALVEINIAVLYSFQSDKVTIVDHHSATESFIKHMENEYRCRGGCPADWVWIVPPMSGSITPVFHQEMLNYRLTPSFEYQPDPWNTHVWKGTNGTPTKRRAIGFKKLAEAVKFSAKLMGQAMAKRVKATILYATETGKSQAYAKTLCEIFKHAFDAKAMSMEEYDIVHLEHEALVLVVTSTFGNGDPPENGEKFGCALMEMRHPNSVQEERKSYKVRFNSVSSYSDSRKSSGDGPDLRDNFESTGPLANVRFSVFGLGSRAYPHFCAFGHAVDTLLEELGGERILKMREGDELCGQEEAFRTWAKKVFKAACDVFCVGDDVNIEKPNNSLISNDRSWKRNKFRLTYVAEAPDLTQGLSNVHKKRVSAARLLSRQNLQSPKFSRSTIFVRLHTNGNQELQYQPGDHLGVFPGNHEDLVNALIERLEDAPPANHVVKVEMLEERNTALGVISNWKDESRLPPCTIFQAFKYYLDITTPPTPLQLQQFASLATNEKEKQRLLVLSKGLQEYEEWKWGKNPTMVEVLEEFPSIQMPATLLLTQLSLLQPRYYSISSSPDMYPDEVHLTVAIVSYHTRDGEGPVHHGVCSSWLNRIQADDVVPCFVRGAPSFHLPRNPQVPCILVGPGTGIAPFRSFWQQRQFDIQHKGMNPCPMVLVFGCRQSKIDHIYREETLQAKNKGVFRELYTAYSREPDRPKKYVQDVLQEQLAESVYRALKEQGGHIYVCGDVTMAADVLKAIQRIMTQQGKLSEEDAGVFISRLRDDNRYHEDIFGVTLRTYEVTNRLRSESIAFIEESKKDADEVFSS
Data set [4] deals with T4, C-X-C chemokine receptor type 1 (Homo sapiens, UniProt P25024).
T4 sequence (P25024 whole entry): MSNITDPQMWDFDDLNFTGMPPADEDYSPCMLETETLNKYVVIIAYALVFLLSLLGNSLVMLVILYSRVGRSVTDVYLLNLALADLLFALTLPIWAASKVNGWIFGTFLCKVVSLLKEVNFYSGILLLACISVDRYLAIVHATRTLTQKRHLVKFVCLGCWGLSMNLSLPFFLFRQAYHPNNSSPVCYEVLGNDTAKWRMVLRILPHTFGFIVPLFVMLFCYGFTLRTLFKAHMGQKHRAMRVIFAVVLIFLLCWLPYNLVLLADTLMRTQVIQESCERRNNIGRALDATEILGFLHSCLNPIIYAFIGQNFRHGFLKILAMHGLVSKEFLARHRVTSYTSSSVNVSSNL

The target in the next data set is Cytochrome P450 3A4 (Homo sapiens, UniProt P08684). The following applies: bti-tn-5b1-4. Further: in other assays of this panel Not Active means under 50% inhibition at 10 µM.
Sequence of Cytochrome P450 3A4 (P08684 whole entry): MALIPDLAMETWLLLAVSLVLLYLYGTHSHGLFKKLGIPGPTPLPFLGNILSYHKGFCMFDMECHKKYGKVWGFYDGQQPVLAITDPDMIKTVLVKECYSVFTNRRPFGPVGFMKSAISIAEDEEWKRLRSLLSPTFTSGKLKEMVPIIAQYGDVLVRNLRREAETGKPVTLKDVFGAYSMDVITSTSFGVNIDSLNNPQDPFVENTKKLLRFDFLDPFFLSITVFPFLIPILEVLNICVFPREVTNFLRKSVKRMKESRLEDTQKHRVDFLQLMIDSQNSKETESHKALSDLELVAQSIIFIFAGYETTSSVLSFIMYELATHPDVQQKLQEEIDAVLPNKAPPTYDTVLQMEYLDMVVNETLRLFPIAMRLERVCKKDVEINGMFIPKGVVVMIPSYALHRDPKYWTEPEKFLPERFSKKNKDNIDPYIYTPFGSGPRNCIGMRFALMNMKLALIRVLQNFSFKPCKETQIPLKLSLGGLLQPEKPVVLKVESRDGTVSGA

The text below walks through data of ChEMBL document CHEMBL1909046, “DrugMatrix in vitro pharmacology data”.

Sequence of 5-hydroxytryptamine receptor 4 (O70528 whole entry): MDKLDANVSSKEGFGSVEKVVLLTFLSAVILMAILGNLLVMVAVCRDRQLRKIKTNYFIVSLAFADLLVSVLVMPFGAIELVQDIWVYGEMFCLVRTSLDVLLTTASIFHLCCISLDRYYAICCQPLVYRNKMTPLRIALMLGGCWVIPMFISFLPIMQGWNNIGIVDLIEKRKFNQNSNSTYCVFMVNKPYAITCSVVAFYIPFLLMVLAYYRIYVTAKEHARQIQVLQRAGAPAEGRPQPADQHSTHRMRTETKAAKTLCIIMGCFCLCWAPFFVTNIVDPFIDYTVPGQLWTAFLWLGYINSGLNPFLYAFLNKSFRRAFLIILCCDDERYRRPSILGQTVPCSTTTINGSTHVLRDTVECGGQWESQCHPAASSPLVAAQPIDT

`CCOc1nc2cccc(C(=O)O)c2n1Cc1ccc(-c2ccccc2-c2nnn[nH]2)cc1`: the IC50 result (in data set [1]; in data set [2]; in data set [3] (cho-k1); against Estrogen receptor; on Adenosine receptor A2a; at Nitric oxide synthase 1) was “Not Active” in each case. Besides, the IC50 result in data set [4] is on record as “Not Active”.

Take `O=C(O)CCCc1cccs1`: the IC50 entry (in data set [1]; in data set [2]; in data set [3] (cho-k1); at Estrogen receptor; against Cytochrome P450 3A4; on Adenosine receptor A2a) was “Not Active” throughout. Moreover, the concentration for half-maximal inhibition (IC50) entry (against Nitric oxide synthase 1; in data set [4]) was “Not Active” each time. The Ki entry on Cytochrome P450 3A4 is given as “Not Active”.

Turning to `O=C(c1ccccc1F)N1CCC(Cc2ccccc2)CC1`, the IC50 entry (in data set [1]; in data set [2]; in data set [3] (cho-k1); on Estrogen receptor; on Cytochrome P450 3A4; on Adenosine receptor A2a) was “Not Active” in each case. Besides, the IC50 result (against Nitric oxide synthase 1; in data set [4]) was “Not Active” each time. Further, the Ki entry at Cytochrome P450 3A4 is on record as “Not Active”.

Regarding `CC(C)C[C@H]1C(=O)N2CCC[C@H]2[C@]2(O)O[C@](NC(=O)[C@@H]3C=C4c5cccc6[nH]cc(c56)C[C@H]4N(C)C3)(C(C)C)C(=O)N12` [ERGOCRYPTINE], the IC50 entry (in data set [1]; in data set [2]; in data set [3] (cho-k1); at Estrogen receptor; on Adenosine receptor A2a; on Nitric oxide synthase 1) was “Not Active” in each case. Also, the IC50 entry in data set [4] was “Not Active”.

Regarding `CC(C)(C(=O)O)c1ccc(C(O)CCCN2CCC(C(O)(c3ccccc3)c3ccccc3)CC2)cc1` (stereo not drawn) [FEXOFENADINE], the IC50 entry (in data set [1]; in data set [2]; in data set [3] (cho-k1); against Estrogen receptor; at Adenosine receptor A2a; against Nitric oxide synthase 1) was “Not Active” in each case. In addition, the IC50 result in data set [4] is recorded as “Not Active”.

For `CC(=O)OCC(=O)[C@@]12OC(C)(C)O[C@@H]1C[C@H]1[C@@H]3C[C@H](F)C4=CC(=O)C=C[C@]4(C)[C@@]3(F)[C@@H](O)C[C@@]12C` [FLUOCINONIDE], the IC50 result (in data set [1]; in data set [2]; in data set [3] (cho-k1); against Estrogen receptor; at Adenosine receptor A2a; against Nitric oxide synthase 1) was “Not Active” each time. Also, the IC50 entry in data set [4] is “Not Active”.

In the case of `N[C@@H](Cn1ccc(=O)c(O)c1)C(=O)O` [L-MIMOSINE], the half-maximal inhibitory concentration (IC50) entry (in data set [1]; in data set [2]; in data set [3] (cho-k1); against Estrogen receptor; at Adenosine receptor A2a; against Nitric oxide synthase 1) was “Not Active” each time. The IC50 result in data set [4] is given as “Not Active”.

As to `C[N+](C)(C)C[C@H](O)CC(=O)[O-]` [LEVOCARNITINE], the IC50 result (in data set [1]; in data set [2]; in data set [3] (cho-k1); at Cytochrome P450 3A4; at Adenosine receptor A2a; on Nitric oxide synthase 1) was “Not Active” in each case. Moreover, the IC50 entry in data set [4] is on record as “Not Active”. Also, on Cytochrome P450 3A4, the inhibition constant Ki entry was “Not Active”.

For `CN(C)C(=N)NC(=N)N` [METFORMIN], the IC50 entry (in data set [1]; in data set [2]; in data set [3] (cho-k1); at Cytochrome P450 3A4; on Adenosine receptor A2a; at Nitric oxide synthase 1) was “Not Active” throughout. Also, the IC50 entry in data set [4] is given as “Not Active”. The Ki result at Cytochrome P450 3A4 is given as “Not Active”.

On to `C[C@@H]1C/C=C/C=C/C=C/C=C/[C@H](O[C@@H]2O[C@H](C)[C@@H](O)[C@H](N)[C@@H]2O)C[C@@H]2O[C@](O)(C[C@@H](O)C[C@H]3O[C@@H]3/C=C/C(=O)O1)C[C@H](O)[C@H]2C(=O)O` [NATAMYCIN], for which the IC50 result (in data set [1]; in data set [2]; in data set [3] (cho-k1); on Estrogen receptor; on Adenosine receptor A2a; at Nitric oxide synthase 1) was “Not Active” in each case. Besides, the IC50 result in data set [4] is given as “Not Active”.

Regarding `CS(=O)(=O)Nc1ccc([N+](=O)[O-])cc1Oc1ccccc1` [NIMESULIDE], the 50% inhibitory concentration (IC50) result (in data set [1]; in data set [2]; in data set [3] (cho-k1); on Cytochrome P450 3A4; at Adenosine receptor A2a; against Nitric oxide synthase 1) was “Not Active” throughout. Further, in data set [4], the half-maximal inhibitory concentration (IC50) result is reported as “Not Active”. Besides, the inhibition constant (Ki) result on Cytochrome P450 3A4 is recorded as “Not Active”.

Take `COc1ccc2c(c1OC)C(=O)O[C@@H]2[C@H]1c2c(cc3c(c2OC)OCO3)CCN1C` [NOSCAPINE]: the IC50 entry (in data set [1]; in data set [2]; in data set [3] (cho-k1); at Cytochrome P450 3A4; on Adenosine receptor A2a; against Nitric oxide synthase 1) was “Not Active” throughout. Further, the IC50 result in data set [4] is “Not Active”. Also, the Ki result on Cytochrome P450 3A4 was “Not Active”.

For the compound `NC(=O)N1c2ccccc2CC(=O)c2ccccc21` [OXCARBAZEPINE], the IC50 result (in data set [1]; in data set [2]; in data set [3] (cho-k1); on Cytochrome P450 3A4; at Adenosine receptor A2a; on Nitric oxide synthase 1) was “Not Active” throughout. The IC50 result in data set [4] is “Not Active”. Also, at Cytochrome P450 3A4, the inhibition constant (Ki) result is given as “Not Active”.

With `N=C(N)c1ccc(OCCCCCOc2ccc(C(=N)N)cc2)cc1` [PENTAMIDINE], the IC50 result in data set [1] was “Not Active”; in data set [2] it was “Not Active”; in data set [3] (read-out: IC50), 2880 nM; at Estrogen receptor, “Not Active”; at Adenosine receptor A2a, “Not Active”; against Nitric oxide synthase 1 it was “Not Active”. Also, the 50% inhibitory concentration (IC50) entry in data set [4] is recorded as “Not Active”. Also, the Ki in data set [3] (read-out: Ki) stood at 2070 nM.

On to `NNCCc1ccccc1` [PHENELZINE], for which the IC50 entry (in data set [1]; in data set [2]; in data set [3] (cho-k1); against Estrogen receptor; on Adenosine receptor A2a; at Nitric oxide synthase 1) was “Not Active” each time. In addition, the IC50 entry in data set [4] was “Not Active”.

Consider `CCN(CC)CCNC(=O)c1ccc(N)cc1` [PROCAINAMIDE], for which the IC50 result (in data set [1]; in data set [2]; in data set [3] (cho-k1); against Cytochrome P450 3A4; on Adenosine receptor A2a; against Nitric oxide synthase 1) was “Not Active” each time. The IC50 entry in data set [4] is “Not Active”. Also, on Cytochrome P450 3A4, the Ki result is given as “Not Active”.
